The source of these data is US6930203B2, “Gelling agents or thickeners” (Applied NanoSystems B.V., priority 2001, dated 2005).

Each structure is given as a SMILES string.

The nature of the series: Solvent scope of N,N′-dialkylaldaramides (1%) or N,N′-dialkylpentaramides (1%): gelation/solubility behaviour in solvents. The arrangement: key: g = gelation; s = soluble; p = precipitates; c = crystallizes; ns = not soluble; v = viscous; g* = unstable gel, precipitates; cg = crystalline gel. The settings on record: 1% gelling agent. In kind it is physicochemical. An excerpt: It will be understood that the use of the present gelling agents or thickeners to prepare a gel or to thicken a composition is also encompassed by the invention. As is well known, gelling behavior of compounds or compositions is highly unpredictable. […] Preferably, the gelling phenomenon is thermo reversible.
Preferred examples include aromatic and nonaromatic hydrocarbons, alcohols, ethers, esters, aldehydes, alkanoic acids, epoxides, amines, halogenated hydrocarbons, silicon oils, vegetable oils, phosphoric esters, sulfoxides, water and mixtures thereof. In order to obtain a gel, the gelling agent or thickener is preferably mixed with the composition to be transformed to a gel in an amount of between 0.01 and 50 wt. %, based on the weight of the composition. In a preferred embodiment, the mixture of the gelling agent or thickener and the composition is heated to allow for an even better gel formation or thickening. Typically, the heating will involve raising the temperature of the mixture to about 30-175° C. until a clear solution is obtained. In an alternative embodiment, the gelling agent is first dissolved in a polar or apolar solvent and then added to or sprayed into a composition or solvent to be converted into a gel.
Solvent scope of N,N′-dialkylaldaramides (1%) or N,N′-dialkylpentaramides (1%) 1-24 refers to the compounds prepared in Examples 1-23)

Take `CCCCNC(=O)[C@@H](O)[C@@H](O)[C@H](O)[C@H](O)C(=O)NCCCC` [Example 2, dibutyl D-mannaramide]: the “Gelation/solubility behaviour in 1,2-dichloroethane” value was “Ns”, the “Gelation/solubility behaviour in 2-octanol” value is recorded as “Ns”, the “Gelation/solubility behaviour in Cyclohexane” value is recorded as “Ns” and the “Gelation/solubility behaviour in Hexadecane” value is recorded as “Ns”. In addition, the “Gelation/solubility behaviour in Toluene” value was “Ns”, the “Gelation/solubility behaviour in Water” value is “Ns”, the “Gelation/solubility behaviour in n-butylacetate” value is “Ns” and the “Gelation/solubility behaviour in p-xylene” value is recorded as “Ns”.
Consider `CCCCCCCC/C=C\CCCCCCCCNC(=O)[C@@H](O)[C@@H](O)[C@H](O)[C@@H](O)C(=O)NCCCCCCCC/C=C\CCCCCCCC` [Example 19, dioleyl D-glucaramide], for which the “Gelation/solubility behaviour in 1,2-dichloroethane” value is recorded as “c”, the “Gelation/solubility behaviour in 2-octanol” value is on record as “c”, the “Gelation/solubility behaviour in 2-propanol” value is recorded as “c” and the “Gelation/solubility behaviour in Cyclohexane” value was “p”. The “Gelation/solubility behaviour in Dimethylsulfoxide” value was “c”, the “Gelation/solubility behaviour in Ethanol” value is recorded as “c”, the “Gelation/solubility behaviour in Hexadecane” value is “p” and the “Gelation/solubility behaviour in Toluene” value is given as “p”. Also, the “Gelation/solubility behaviour in Water” value is listed as “ns”, the “Gelation/solubility behaviour in n-butylacetate” value was “c” and the “Gelation/solubility behaviour in p-xylene” value is on record as “p”.
With `CCCCNC(=O)[C@@H](O)[C@H](O)[C@H](O)[C@@H](O)C(=O)NCCCC` [Example 3, dibutyl galactaramide], the “Gelation/solubility behaviour in 1,2-dichloroethane” value is on record as “ns”, the “Gelation/solubility behaviour in 2-octanol” value is on record as “ns”, the “Gelation/solubility behaviour in 2-propanol” value is recorded as “c” and the “Gelation/solubility behaviour in Cyclohexane” value is “ns”. Further, the “Gelation/solubility behaviour in Dimethylsulfoxide” value is “s”, the “Gelation/solubility behaviour in Ethanol” value was “c”, the “Gelation/solubility behaviour in Hexadecane” value is on record as “ns” and the “Gelation/solubility behaviour in Toluene” value is on record as “ns”. The “Gelation/solubility behaviour in Water” value was “ns”, the “Gelation/solubility behaviour in n-butylacetate” value is recorded as “ns” and the “Gelation/solubility behaviour in p-xylene” value was “ns”.
Regarding `CCCCNC(=O)[C@@H](O)[C@@H](O)[C@H](O)[C@@H](O)C(=O)NCCCC` [Example 1, dibutyl D-glucaramicle], the “Gelation/solubility behaviour in 1,2-dichloroethane” value is “ns”, the “Gelation/solubility behaviour in Cyclohexane” value is “ns”, the “Gelation/solubility behaviour in Hexadecane” value is on record as “ns” and the “Gelation/solubility behaviour in Toluene” value was “ns”. The “Gelation/solubility behaviour in Water” value is given as “ns”, the “Gelation/solubility behaviour in n-butylacetate” value was “ns” and the “Gelation/solubility behaviour in p-xylene” value is “ns”.
With `CO[C@@H]([C@H](O)[C@H](O)C(=O)NC1CCCCCCCCCCC1)[C@@H](O)C(=O)NC1CCCCCCCCCCC1` [Example 22, 3-O-methyl-dicyclododecyl D-glucaramide], the “Gelation/solubility behaviour in 1,2-dichloroethane” value is “p”, the “Gelation/solubility behaviour in 2-octanol” value is “p”, the “Gelation/solubility behaviour in 2-propanol” value is reported as “p” and the “Gelation/solubility behaviour in Cyclohexane” value is recorded as “g”. The “Gelation/solubility behaviour in Dimethylsulfoxide” value is “p”, the “Gelation/solubility behaviour in Ethanol” value is listed as “p”, the “Gelation/solubility behaviour in Hexadecane” value is recorded as “ns” and the “Gelation/solubility behaviour in Toluene” value is given as “p”. The “Gelation/solubility behaviour in n-butylacetate” value is recorded as “p” and the “Gelation/solubility behaviour in p-xylene” value is given as “p”.
As for `CCCCCCCCNC(=O)[C@@H](O)[C@@H](O)[C@H](O)[C@@H](O)C(=O)NCCCCCCCC` [Example 8, dioctyl D-glucaramide], the “Gelation/solubility behaviour in 1,2-dichloroethane” value is recorded as “ns”, the “Gelation/solubility behaviour in 2-octanol” value is recorded as “ns”, the “Gelation/solubility behaviour in 2-propanol” value is given as “c” and the “Gelation/solubility behaviour in Cyclohexane” value was “ns”. Moreover, the “Gelation/solubility behaviour in Dimethylsulfoxide” value is on record as “s”, the “Gelation/solubility behaviour in Ethanol” value was “c”, the “Gelation/solubility behaviour in Hexadecane” value is listed as “ns” and the “Gelation/solubility behaviour in Toluene” value is “ns”. For the same compound, the “Gelation/solubility behaviour in Water” value is “ns”, the “Gelation/solubility behaviour in n-butylacetate” value is listed as “ns” and the “Gelation/solubility behaviour in p-xylene” value is reported as “ns”.
Regarding `O=C(NC1CCCCC1)[C@@H](O)[C@@H](O)[C@@H](O)C(=O)NC1CCCCC1` [Example 4, dicyclohexyl D-ribaramide], the “Gelation/solubility behaviour in 1,2-dichloroethane” value is given as “s”, the “Gelation/solubility behaviour in 2-octanol” value is recorded as “p”, the “Gelation/solubility behaviour in 2-propanol” value was “p” and the “Gelation/solubility behaviour in Cyclohexane” value is on record as “ns”. The “Gelation/solubility behaviour in Dimethylsulfoxide” value is given as “s”, the “Gelation/solubility behaviour in Ethanol” value is on record as “s”, the “Gelation/solubility behaviour in Hexadecane” value is listed as “ns” and the “Gelation/solubility behaviour in Toluene” value is reported as “p”. For the same compound, the “Gelation/solubility behaviour in Water” value is reported as “ns”, the “Gelation/solubility behaviour in n-butylacetate” value is listed as “p” and the “Gelation/solubility behaviour in p-xylene” value is listed as “p”.
As to `CCCCCCCCCCCCNC(=O)[C@@H](O)[C@@H](O)[C@H](OC)[C@@H](O)C(=O)NCCCCCCCCCCCC` [Example 21, 3-O-methyl-didodecyl D-glucaramide], the “Gelation/solubility behaviour in 1,2-dichloroethane” value is on record as “p”, the “Gelation/solubility behaviour in 2-octanol” value was “c”, the “Gelation/solubility behaviour in 2-propanol” value was “p” and the “Gelation/solubility behaviour in Cyclohexane” value is reported as “g”. Moreover, the “Gelation/solubility behaviour in Dimethylsulfoxide” value is on record as “p”, the “Gelation/solubility behaviour in Ethanol” value was “p”, the “Gelation/solubility behaviour in Hexadecane” value is recorded as “p” and the “Gelation/solubility behaviour in Toluene” value is listed as “p”. The “Gelation/solubility behaviour in Water” value is “ns”, the “Gelation/solubility behaviour in methyl benzoic acid” value is on record as “p”, the “Gelation/solubility behaviour in n-butylacetate” value is “c” and the “Gelation/solubility behaviour in p-xylene” value is reported as “p”. Also, the “Gelation/solubility behaviour in silicon oil” value is listed as “v”.
With `CCCCCCCCCCCCNC(=O)[C@@H](O)[C@@H](O)[C@H](O)[C@H](O)C(=O)NCCCCCCCCCCCC` [Example 13, didodecyl D-mannaramide], the “Gelation/solubility behaviour in 1,2-dichloroethane” value is “c”, the “Gelation/solubility behaviour in 2-octanol” value is on record as “p”, the “Gelation/solubility behaviour in 2-propanol” value is reported as “c” and the “Gelation/solubility behaviour in Cyclohexane” value was “ns”. In addition, the “Gelation/solubility behaviour in Dimethylsulfoxide” value was “c”, the “Gelation/solubility behaviour in Ethanol” value was “ns”, the “Gelation/solubility behaviour in Hexadecane” value is reported as “ns” and the “Gelation/solubility behaviour in Toluene” value is recorded as “ns”. The “Gelation/solubility behaviour in Water” value is reported as “ns”, the “Gelation/solubility behaviour in n-butylacetate” value is recorded as “ns” and the “Gelation/solubility behaviour in p-xylene” value was “ns”.
On to `CO[C@@H]([C@H](O)[C@H](O)C(=O)NC1CCCCC1)[C@@H](O)C(=O)NC1CCCCC1` [Example 20, 3-O-methyl-dicyclohexyl D-glucaramide], for which the “Gelation/solubility behaviour in 1,2-dichloroethane” value is on record as “c”, the “Gelation/solubility behaviour in 2-octanol” value was “p”, the “Gelation/solubility behaviour in 2-propanol” value is on record as “c” and the “Gelation/solubility behaviour in Cyclohexane” value is on record as “ns”. The “Gelation/solubility behaviour in Dimethylsulfoxide” value is reported as “s”, the “Gelation/solubility behaviour in Ethanol” value was “c”, the “Gelation/solubility behaviour in Hexadecane” value is listed as “ns” and the “Gelation/solubility behaviour in Toluene” value is reported as “p”. Further, the “Gelation/solubility behaviour in Water” value is reported as “ns”, the “Gelation/solubility behaviour in n-butylacetate” value was “p” and the “Gelation/solubility behaviour in p-xylene” value is reported as “p”.
As to `O=C(NC1CCCCC1)[C@@H](O)[C@@H](O)[C@H](O)[C@@H](O)C(=O)NC1CCCCCCCCCCC1` [Example 23, N1-cyclododecyl, N6-cyclohexyl D-glucaramide], the “Gelation/solubility behaviour in Cyclohexane” value is reported as “p”, the “Gelation/solubility behaviour in methyl benzoic acid” value is “p”, the “Gelation/solubility behaviour in n-butylacetate” value was “p” and the “Gelation/solubility behaviour in p-xylene” value is reported as “p”. Moreover, the “Gelation/solubility behaviour in silicon oil” value is given as “v”. For the same compound, for the setting “2-methoxyethanol”, the “Gelation/solubility behaviour in 2-methoxyethanol” value is “p”. For the same compound, the “Gelation/solubility behaviour in methyl laurate” value (methyl laurate) is reported as “p”.
Turning to `CCCCCCCCNC(=O)[C@@H](O)[C@@H](O)[C@H](O)[C@H](O)C(=O)NCCCCCCCC` [Example 9, dioctyl D-mannaramide], the “Gelation/solubility behaviour in 1,2-dichloroethane” value is “ns”, the “Gelation/solubility behaviour in 2-octanol” value is reported as “ns”, the “Gelation/solubility behaviour in 2-propanol” value is listed as “c” and the “Gelation/solubility behaviour in Cyclohexane” value is “ns”. Further, the “Gelation/solubility behaviour in Dimethylsulfoxide” value is “c”, the “Gelation/solubility behaviour in Ethanol” value is “c”, the “Gelation/solubility behaviour in Hexadecane” value is listed as “ns” and the “Gelation/solubility behaviour in Toluene” value is reported as “ns”. The “Gelation/solubility behaviour in Water” value is given as “ns”, the “Gelation/solubility behaviour in n-butylacetate” value is on record as “ns” and the “Gelation/solubility behaviour in p-xylene” value was “ns”.
